Measured values reported in patent US20250161245A1, “A MIXTURE OF UREA, BIURET AND N-CONTAINING BY-PRODUCTS CREATED DURING BIURET PRODUCTION AS A DIETARY NON-PROTEIN NITROGEN-SOURCE FOR RUMINANTS AND USES THEREOF” (Yara International ASA, priority 2022, published 2025).

Key:
ruminal fluid = assay: in vitro dry and organic matter digestibility, batch culture (Example 4); assay type: cell-based, Angus crossbred steers; conditions: 24 hours of incubation, corn silage-based diet
Procedure: The in vitro incubations were conducted on three separate days (replicates). A representative sample of digesta was collected from different places in the rumen of ruminally cannulated steers and strained through 4 layers of cheesecloth, placed in pre-warmed thermos containers, and transported to the laboratory within 30 minutes after the collection. In the laboratory, the ruminal fluid from the two steers was maintained under constant CO2-flux and was combined in equal proportions. This combined ruminal fluid was mixed with McDougall's buffer (McDougall, 1948) with and without 0.077 g/liter of 10 wt. % ammonium sulfate enriched with ^15N in relation 1:4, and it was used as an inoculum. Two bottles of 500 ml fitted with a side arm and a rubber septum were incubated per treatment. […] At the end of the 24 hours incubation, the final pH was recorded, the bottles were placed on ice to prevent further microbial fermentation and two 10-ml samples were collected and acidified by adding 20 μl of a 20 vol/vol % of H2SO4-solution and were frozen at minus 20° C. until further analysis. […]
The concentration of ammonia-N at 12 and 24 hours in the incubation fluid was measured after centrifuging at 10,000×g for 15 minutes at 4° C. using an Avanti J-E centrifuge from Beckman Coulter® Incorporated. […]

[1] = animal performance of steers with NPN supplementation (Example 3); assay type: in vivo, crossbred yearling steers
Excerpt: A total of 72 crossbred yearling steers [303 kg±29 kg initial body weight (BW) were stratified by body weight (BW) and randomly allocated to three treatments. All steers consumed a basal diet of corn silage, cotton-gin trash, and a premix of vitamins and minerals.
The steers were housed in pens (8 steers/pen, 3 pens/treatment). The steers were supplemented with two different NPN-sources on an isonitrogenous basis, considering as reference the N provided by urea when included at 1 wt. % of the diet in dry matter (DM) basis.
In Table 5, the composition of the basal diet supplemented with two different types of NPN, i.e. urea (Urea) (46% N) and a mixture of urea and biuret according to the present disclosure (UB), with composition as in example 1 (41% N) is shown.
The gain to feed ratio (G:F) was computed as the ratio of the average daily gain (ADG) to daily dry matter intake (DMI). The feed intake was recorded daily. The individual intake was determined via the GrowSafe® intake monitoring system. In cattle management, GrowSafe Systems is a commonly used tool to closely monitor individual animal feeding data using radio frequency identification (RFID) tag technology. The animals are equipped with a unique RFID tag that is read by the feed bunks each time the animal lowers its head into the bunk to consume feed. Average daily weight gain (ADG) and feed efficiency were calculated during the performance evaluation. The ADG was determined by the difference between the final BW and the initial BW divided by the number of days of the performance evaluation (56 days). The initial BW was calculated as the average unshrunk BW of […] on days 16 and 17. The final BW was the average unshrunk BW measured on days 72 and 73. The unshrunk BW was obtained every 14 days.

NC(N)=O [Urea, urea]
IVDMD (ruminal fluid): 45.08% | IVOMD (ruminal fluid): 65.38% | DMI ([1]; days 0-14): 6.82 kg/day | G:F ([1]; days 0-14): 0.10 kg/kg | DMI ([1]; days 0-28): 7.03 kg/day | G:F ([1]; days 0-28): 0.11 kg/kg | DMI ([1]; days 0-42): 7.24 kg/day | G:F ([1]; days 0-42): 0.14 kg/kg | ADG ([1]; days 0-56): 1.01 kg | DMI ([1]; days 0-56): 7.29 kg/day | G:F ([1]; days 0-56): 0.14 kg/kg | DMI (% of BW) ([1]; steers): 2.31 % of BW | NEg ([1]; steers): 0.55 Mcal/kg of DM | Initial BW ([1]; steers, baseline, NPN 1.00 wt. % urea or 1.12 wt. % UB of diet DM): 288.69 kg | Final BW ([1]; steers, end of 56 days performance evaluation): 343.69 kg
